According to paper PMC12156181, “Antitrypanosomal and Antileishmanial Activities of Tacca leontopetaloides Tubers and Zanthoxylum zanthoxyloides Stem Bark” (Molecules, 2025):
Read-outs that look alike come from different tables or passages of the source.

Tests used:
T. b. brucei s427 [1] = tested on: T. b. brucei s427; parameters: method as in doi:10.3390/M1070; details: read-out: EC50 against T. b. brucei s427; cited from earlier work
T. equiperdum (BoTat1) = experiment: resazurin drug sensitivity assay, T. equiperdum; format: cell-based, Trypanosoma equiperdum; details: for T. equiperdum RF: RF = EC50 (parasite)/EC50(s427 WT); for T. equiperdum SI: SI = EC50 (HEK)/EC50(parasite)
all trypanosome species = experiment: resazurin assay, summary over trypanosome species; format: cell-based, Trypanosoma
[2] = tested on: Trypanosoma congolense (IL3000); experiment: resazurin drug sensitivity assay, T. congolense; format: cell-based; details: for T. congolense RF: RF = EC50 (parasite)/EC50(s427 WT); for T. congolense SI: SI = EC50 (HEK)/EC50(parasite)
HEK 293 cells = experiment: toxicity assay on HEK 293 cells (Alamar Blue); details: for EC50: read-out: HEK 293 EC50, average ± SEM; for toxicity to HEK 293 cells at the highest concentration tested: highest tested concentration 100 or 200 µg/mL (1: 300 µM; 4: 140 µM; 5: 427 µM)
macrophages RAW264.7 = tested on: macrophages RAW264.7; parameters: method as in doi:10.3390/M1070; details: normal cell lines; cited from earlier work
T. b. brucei B48 = experiment: microbe, parasite or virus in culture; format: cell-based, Trypanosoma brucei brucei; details: for T. b. brucei B48 RF: RF = EC50 (parasite)/EC50(s427 WT); for T. b. brucei B48 SI: SI = EC50 (HEK)/EC50(parasite)
T. b. brucei s427 [3] = experiment: resazurin drug sensitivity assay, T. b. brucei s427 wild-type bloodstream forms; format: cell-based, Trypanosoma brucei brucei; details: for T. b. brucei s427 SI: SI = EC50 (HEK)/EC50(parasite); for EC50: read-out: T. b. brucei s427 EC50
T. evansi (AnTat 3/3) = experiment: resazurin drug sensitivity assay, T. evansi; format: cell-based, Trypanosoma evansi; details: for T. evansi RF: RF = EC50 (parasite)/EC50(s427 WT); for T. evansi SI: SI = EC50 (HEK)/EC50(parasite); for EC50: Trypanosoma evansi
[4] = tested on: kinetoplastid parasites (trypanosomes and L. mexicana); experiment: resazurin assay, summary of anti-kinetoplastid activity across the board; format: cell-based; details: Leishmania mexicana, read-out: EC50, anti-kinetoplastid activity across the board (range)
[5] = tested on: Leishmania mexicana promastigotes; experiment: resazurin drug sensitivity assay, L. mexicana promastigotes; format: cell-based; details: for L. mexicana SI: SI = EC50 (HEK)/EC50(parasite)
T. b. brucei s427 [6] = tested on: T. b. brucei s427; parameters: method as in PMID 27313159; details: cited from earlier work
[7] = tested on: trypanosomes of the Trypanozoon subgenus (T. b. brucei, T. evansi and T. equiperdum); experiment: resazurin assay, summary over Trypanozoon subgenus trypanosomes; format: cell-based, Trypanosoma; details: for EC50: Trypanosoma brucei, T. b. brucei s427, B48, T. evansi, T. equiperdum, read-out: EC50 values against trypanosomes of the Trypanozoon subgenus (range)
T. b. brucei s427 [8] = tested on: T. b. brucei s427; parameters: method as in earlier work; details: cited from earlier work
[9] = Trypanosoma equiperdum, average ± SEM
[10] = Trypanosoma congolense, average ± SEM
[11] = Trypanosoma brucei, read-out: T. b. brucei B48 EC50, multi-drug-resistant clone, average ± SEM
[12] = Leishmania mexicana, promastigotes, average ± SEM, read-out: L. mexicana EC50
[13] = a = EC50 of control for 1, 3, 4
[14] = b = EC50 of control for 5, 6, 7
[15] = Leishmania mexicana, read-out: L. mexicana EC50, promastigotes, average ± SEM
[16] = Trypanosoma brucei, average ± SEM, at least three independent determinations
[17] = printed in brackets beside the µg/mL value

| SMILES | T. equiperdum RF (T. equiperdum (BoTat1)) | T. equiperdum SI (T. equiperdum (BoTat1)) | EC50 (T. equiperdum (BoTat1); [9]) [µM] | T. congolense RF [2] | T. congolense SI [2] | EC50 [2, 10] [µM] | EC50 (HEK 293 cells) [µM] | T. b. brucei B48 RF (T. b. brucei B48) | T. b. brucei B48 SI (T. b. brucei B48) | EC50 (T. b. brucei B48; [11]) [µM] | T. b. brucei s427 SI (T. b. brucei s427 [3]) | EC50 (T. b. brucei s427 [3]; Trypanosoma brucei) [µM] | T. evansi RF (T. evansi (AnTat 3/3)) | T. evansi SI (T. evansi (AnTat 3/3)) | EC50 (T. evansi (AnTat 3/3); average ± SEM) [µM] | EC50 [5, 12] [µM] | EC50 (T. b. brucei s427 [3]; [16]) [µM] | also measured |
| --- | --- | --- | --- | --- | --- | --- | --- | --- | --- | --- | --- | --- | --- | --- | --- | --- | --- | --- |
| CC(C)CNC(=O)/C=C/c1ccc2c(c1)OCO2 [Compound 7, fagaramide] | 1.5 | 13.4 | 27.1 ± 0.1 | 1.9 | 10.6 | 34.4 ± 5.7 | 364 ± 44 | 0.6 | 33.8 | 10.9 ± 0.4 | 20.4 | 17.8 ± 7.3 | 0.6 | 33.0 | 10.9 ± 0.4 | 13.3 ± 0.4 | – | EC50 (T. b. brucei s427 [1]): 7.3 µM; EC50 (all trypanosome species; Trypanosoma, read-out: EC50 against all trypanosome species (range)): 10.9 to 34.4 µM; EC50 (macrophages RAW264.7): 215 µM; EC50 [4]: 10.9 to 34.4 µM; L. mexicana SI [5]: 27 |
| N=C(N)c1ccc(OCCCCCOc2ccc(C(=N)N)cc2)cc1 [PMD, pentamidine isethionate, reference compound] | – | – | – | – | – | – | – | approximately 50 | – | – | – | – | – | – | – | – | – | EC50 (T. equiperdum (BoTat1); Trypanosoma equiperdum, a = EC50 of control for 1, 3, 4): 0.0081 µM; EC50 (T. equiperdum (BoTat1); Trypanosoma equiperdum, b = EC50 of control for 5, 6, 7): 0.0033 µM; EC50 (T. b. brucei B48; Trypanosoma brucei, read-out: T. b. brucei B48 EC50, a = EC50 of control for 1, 3, 4): 0.312 µM; EC50 (T. b. brucei B48; Trypanosoma brucei, read-out: T. b. brucei B48 EC50, b = EC50 of control for 5, 6, 7): 0.288 µM; T. b. brucei B48 RF (T. b. brucei B48; a = control for 1, 3, 4): 47.3; T. b. brucei B48 RF (T. b. brucei B48; b = control for 5, 6, 7): 55.4; EC50 (T. b. brucei s427 [3]; Trypanosoma brucei, a = EC50 of control for 1, 3, 4): 0.0066 µM; EC50 (T. b. brucei s427 [3]; Trypanosoma brucei, b = EC50 of control for 5, 6, 7): 0.0052 µM; EC50 (T. evansi (AnTat 3/3); [13]): 0.016 µM; EC50 (T. evansi (AnTat 3/3); [14]): 0.0025 µM; EC50 ([5]; Leishmania mexicana, a = EC50 of control for 1, 3, 4, read-out: L. mexicana EC50): 1.1 µM; EC50 ([5]; Leishmania mexicana, b = EC50 of control for 5, 6, 7, read-out: L. mexicana EC50): 0.76 µM |
| N=C(N)c1ccc(N=NNc2ccc(C(=N)N)cc2)cc1 [DA, diminazene aceturate, reference compound] | – | – | – | – | – | – | – | – | – | – | – | – | – | – | – | – | – | EC50 [2, 13]: 0.51 µM; EC50 [2, 14]: 0.46 µM |
| CC(=O)O[C@H]1CC[C@]2(C)[C@H]3CC[C@]4(C)C(=CC[C@@]5(C)CCC(C)(C)C[C@H]54)[C@]3(C)CC[C@H]2C1(C)C [Compound 5, taraxerol acetate] | 0.13 | >20 | ~20 | 1.1 | – | 178 ± 14 | > 427 | 0.75 | >3.4 | 128 ± 5 | >3.1 | 138 ± 61 | 0.4 | >6.8 | 62.9 ± 1.5 | – | – | EC50 (T. equiperdum (BoTat1); average ± SEM): 21.3 ± 0.3 µM; EC50 (all trypanosome species; Trypanosoma equiperdum, all but T. equiperdum, read-out: EC50 against most trypanosome species): > 60 µM; toxicity to HEK 293 cells at the highest concentration tested (HEK 293 cells): not toxic; EC50 [5, 15]: > 427 µM |
| CC(=O)O[C@@H]1[C@H]2[C@H]3[C@H]([C@H](OC(C)=O)[C@H](OC(C)=O)[C@]2(C)[C@@H]2[C@@H]1[C@]1(C)C(=C[C@H]2C)OC(=O)[C@@]1(C)O)[C@]1(C)[C@H](C[C@@H]2O[C@@H]2[C@@H]1OC(C)=O)C(=O)[C@@H]3O [Compound 3, taccalonolide A] | 0.86 | >2.6 | 55.8 | 1.6 | >1.4 | 105 ± 41 | > 143 | 0.7 | >3.1 | 45.4 ± 4.1 | >2.2 | – | 1.0 | >2.2 | 66.3 ± 9.5 | > 285 | 64.7 ± 21.2 | activity against T. b. brucei s427 (T. b. brucei s427 [6]): 11.42 µg/mL; activity against T. b. brucei s427 (T. b. brucei s427 [6]; [17]): 16.3 µM; EC50 [7]: 45.4 to 66.3 µM; RF (cross-resistance) with B48, T. evansi and T. equiperdum ([7]; relative to s427): ≤ 1; L. mexicana EC50 ([5]; promastigotes, average ± SEM): low activity |
| CCC(=O)O[C@H]1[C@@H](OC(C)=O)[C@H]2[C@H]([C@@H]3[C@@H](OC(C)=O)[C@@H]4[C@H]([C@H](C)C=C5OC(=O)[C@@](C)(O)[C@@]54C)[C@]31C)[C@@H](O)C(=O)[C@H]1C[C@@H]3O[C@@H]3[C@H](OC(C)=O)[C@]21C [Compound 4, Taccalonolide A 12-propanoate] | 1.5 | >1.8 | 77.7 ± 10.5 | >2.8 | – | > 140 | > 140 | 1.4 | >1.9 | 75.1 ± 12.3 | >2.6 | – | 1.6 | >1.7 | 82.7 ± 7.4 | > 280 | 53.4 | EC50 (T. b. brucei s427 [3]; average ± SEM, at least three independent determinations): 53.3 ± 8.6 µM; activity against T. b. brucei s427 (T. b. brucei s427 [6]): 3.13 µg/mL; activity against T. b. brucei s427 (T. b. brucei s427 [6]; [17]): 4.6 µM; L. mexicana EC50 ([5]; promastigotes, average ± SEM): low activity |
| COc1ccc2c(c1OC)CN(C)c1c-2ccc2cc3c(cc12)OCO3 [Compound 6, dihydrochelerythrin] | 2.2 | 30.4 | 3.09 ± 0.52 | 6.0 | 11.4 | 8.3 ± 0.57 | 94.4 ± 23.2 | 1.8 | 37.0 | 2.56 | 68.0 | – | 0.8 | 87 | 1.09 ± 0.06 | 5.4 ± 0.6 | 1.37 ± 0.43 | EC50 (T. b. brucei B48; read-out: T. b. brucei B48 EC50, multi-drug-resistant clone, average ± SEM): 2.55 ± 0.29 µM; EC50 [7]: 1.37 to 3.09 µM; EC50 [4]: 1.4 to 8.3 µM; L. mexicana SI [5]: 18; EC50 ([5]; promastigotes, average ± SEM, read-out: L. mexicana EC50): 5.44 ± 0.57 µM |
| COc1ccc(C(=O)C[C@H](O)c2c(O)cc(OC)cc2OC)cc1 [Compound 1, (S)-3-hydroxy-3-(2″-hydroxy-4″,6″-dimethoxyphenyl)-1-(4′-methoxyphenyl)propan-1-one] | 0.60 | >14 | ~20 | 6.9 | >1.2 | 246 ± 5 | > 300 | 1.4 | >6.0 | 50.2 ± 15 | >8.5 | 35.5 ± 3.6 | 1.3 | >6.5 | 46 ± 2.4 | – | – | EC50 (T. equiperdum (BoTat1); average ± SEM): 21.4 ± 3.9 µM; toxicity to HEK 293 cells at the highest concentration tested (HEK 293 cells): non-toxic; EC50 [5, 15]: 581 ± 3 µM |
| COc1ccc2c(c1OC)C(CC(C)=O)N(C)c1c-2ccc2cc3c(cc12)OCO3 (centres unmarked) [6-Acetonyl-5,6-dihydrochelerythrine] | – | – | – | – | – | – | – | – | – | – | – | – | – | – | – | – | – | activity against T. b. brucei s427 (T. b. brucei s427 [8]): no significant activity |
